The values below come from publication PMC6931042 (Bioorganic chemistry, 2018).

In test [1] the test system is human lung adenocarcinoma A549. As to the kind of experiment: Trypan blue exclusion cytotoxicity assay.
Test [2] concerns chronic myeloid leukemia K-562. Briefly: Trypan blue exclusion cytotoxicity assay.
Setting [3] is: read-out: A549 (IC50 μM), trypan blue exclusion, 24 h, mean ± SD.
Setting [4] is: read-out: K-562 (IC50 μM), trypan blue exclusion, 24 h, mean ± SD.
The mark [5] stands for this setting: Homo sapiens, A549, 24 h, read-out: A549 (IC50 μM), trypan blue exclusion, mean ± SD.
Setting [6] is: Homo sapiens, K562, 24 h, read-out: K-562 (IC50 μM), trypan blue exclusion, mean ± SD.

Structures are written as SMILES. Like-named read-outs stand apart in the source and are kept apart here.

Regarding `N.N.[Cl][Pt][Cl]` [Cisplatin, reference compound], the IC50 in test [1] (setting [3]) was 15.3 ± 1.87 µM; in test [2] (setting [4]), 2.71 ± 0.34 µM.
For the molecule `Nc1ccc(C(/C=C\c2ccccc2)=NNC(=O)c2cc(-c3ccccc3)nc3ccccc23)cc1` [Compound 9a, N’-((Z)-1-(4-Aminophenyl)-3-phenylallylidene)-2-phenylquinoline-4-carbohydrazide], the half-inhibitory concentration (IC50) is more than 100 µM in test [1] (setting [5]), 83 µM in test [2] (setting [6]) and 82.8 ± 3.24 µM in test [2] (setting [4]).
On to `Nc1ccc(C(/C=C\c2ccccc2)=NNC(=O)c2cc(-c3ccc(Cl)cc3)nc3ccccc23)cc1` [Compound 9b, N’-((Z)-1-(4-Aminophenyl)-3-phenylallylidene)-2-(4-chlorophenyl)quinoline-4-carbohydrazide], for which the IC50 was determined as 17.6 ± 2.5 µM in test [1] (setting [5]) and 8.96 ± 1.06 µM in test [2] (setting [6]).
As to `COc1ccc(-c2cc(C(=O)NN=C(/C=C\c3ccccc3)c3ccc(N)cc3)c3ccccc3n2)cc1` [Compound 9c, N’-((Z)-1-(4-Aminophenyl)-3-phenylallylidene)-2-(4-methoxyphenyl)quinoline-4-carbohydrazide], the values for the half-maximal inhibitory concentration (IC50) in test [1] (setting [5]) and in test [2] (setting [6]) were 16.4 ± 1.3 µM and 5.37 ± 0.31 µM, respectively.
As for `Cc1ccc(-c2cc(C(=O)NN=C(/C=C\c3ccccc3)c3ccc(N)cc3)c3ccccc3n2)cc1` [Compound 9d, N’-((Z)-1-(4-Aminophenyl)-3-phenylallylidene)-2-(4-methylphenyl)quinoline-4-carbohydrazide], the IC50 in test [1] (setting [5]) came to 11 µM; in test [1] (setting [3]) it was 11.2 ± 0.52 µM; in test [2] (setting [6]) it was 6.98 ± 0.92 µM.
In the case of `COc1ccc2nc(-c3ccc(Cl)cc3)cc(C(=O)NN=C(/C=C\c3ccccc3)c3ccc(N)cc3)c2c1` [Compound 9e, N’-((Z)-1-(4-Aminophenyl)-3-phenylallylidene)-2-(4-chlorophenyl)-6-methoxyquinoline-4-carbohydrazide], the 50% inhibitory concentration (IC50) in test [1] (setting [5]) was 19.2 ± 1.85 µM; in test [2] (setting [6]), 5.09 ± 0.19 µM.
For `COc1ccc(-c2cc(C(=O)NN=C(/C=C\c3ccccc3)c3ccc(N)cc3)c3cc(OC)ccc3n2)cc1` [Compound 9f, N’-((Z)-1-(4-Aminophenyl)-3-phenylallylidene)-2-(4-methoxyphenyl)-6-methoxyquinoline-4-carbohydrazide], the IC50 worked out at 91 µM in test [1] (setting [5]), 91.4 ± 4.54 µM in test [1] (setting [3]), 81 µM in test [2] (setting [6]) and 81.2 ± 3.14 µM in test [2] (setting [4]).
On the same counts, the results for `Nc1ccc(C(/C=C\c2ccc(Cl)cc2)=NNC(=O)c2cc(-c3ccccc3)nc3ccccc23)cc1` [Compound 9g, N’-((Z)-1-(4-Aminophenyl)-3-(4-chlorophenyl)allylidene)-2-phenylquinoline-4-carbohydrazide] are 18.5 µM, 18.5 ± 0.52 µM, 15.2 µM and 15.2 ± 2.15 µM.
For the molecule `Nc1ccc(C(/C=C\c2ccc(Cl)cc2)=NNC(=O)c2cc(-c3ccc(Cl)cc3)nc3ccccc23)cc1` [Compound 9h, N’-((Z)-1-(4-Aminophenyl)-3-(4-chlorophenyl)allylidene)-2-(4-chlorophenyl)quinoline-4-carbohydrazide], the half-inhibitory concentration (IC50) in test [1] (setting [5]) was found to be 9 µM; in test [1] (setting [3]), 9.46 ± 0.63 µM; in test [2] (setting [6]) it was 4.28 ± 0.34 µM.
Consider `COc1ccc2nc(-c3ccc(Cl)cc3)cc(C(=O)NN=C(/C=C\c3ccc(Cl)cc3)c3ccc(N)cc3)c2c1` [Compound 9k, N’-((Z)-1-(4-Aminophenyl)-3-(4-chlorophenyl)allylidene)-2-(4-chlorophenyl)-6-methoxyquinoline-4-carbohydrazide], for which the IC50 in test [1] (setting [5]) was more than 100 µM; in test [2] (setting [6]), 15.2 ± 1.49 µM.
In the case of `COc1ccc(-c2cc(C(=O)NN=C(/C=C\c3ccc(Cl)cc3)c3ccc(N)cc3)c3cc(OC)ccc3n2)cc1` [Compound 9l, N’-((Z)-1-(4-Aminophenyl)-3-(4-chlorophenyl)allylidene)-2-(4-methoxyphenyl)-6-methoxyquinoline-4-carbohydrazide], the IC50 is more than 100 µM in test [1] (setting [5]) and 5.17 ± 0.18 µM in test [2] (setting [6]).
Regarding `COc1ccc(/C=C\C(=NNC(=O)c2cc(-c3ccccc3)nc3ccccc23)c2ccc(N)cc2)cc1` [Compound 9m, N’-((Z)-1-(4-Aminophenyl)-3-(4-methoxyphenyl)allylidene)-2-phenylquinoline-4-carbohydrazide], the half-maximal inhibitory concentration (IC50) in test [1] (setting [5]) is more than 100 µM; in test [2] (setting [6]), 60.7 ± 2.67 µM.
For the molecule `COc1ccc(/C=C\C(=NNC(=O)c2cc(-c3ccc(Cl)cc3)nc3ccccc23)c2ccc(N)cc2)cc1` [Compound 9n, N’-((Z)-1-(4-Aminophenyl)-3-(4-methoxyphenyl)allylidene)-2-(4-chlorophenyl)quinoline-4-carbohydrazide], the figures for the concentration for half-maximal inhibition (IC50) in test [1] (setting [5]) and in test [2] (setting [6]) were 48.3 ± 1.69 µM and 14.4 ± 0.94 µM, respectively.
The corresponding values for `COc1ccc(/C=C\C(=NNC(=O)c2cc(-c3ccc(OC)cc3)nc3ccccc23)c2ccc(N)cc2)cc1` [Compound 9o, N’-((Z)-1-(4-Aminophenyl)-3-(4-methoxyphenyl)allylidene)-2-(4-methoxyphenyl)quinoline-4-carbohydrazide] are 46.5 ± 2.21 µM and 10.9 ± 0.74 µM.
`COc1ccc(/C=C\C(=NNC(=O)c2cc(-c3ccc(C)cc3)nc3ccccc23)c2ccc(N)cc2)cc1` [Compound 9p, N’-((Z)-1-(4-Aminophenyl)-3-(4-methoxyphenyl)allylidene)-2-(4-methylphenyl)quinoline-4-carbohydrazide]: the IC50 in test [1] (setting [5]) stood at 33.9 ± 2.15 µM; in test [2] (setting [6]) it was 18 ± 0.97 µM.
On to `COc1ccc(/C=C\C(=NNC(=O)c2cc(-c3ccc(Cl)cc3)nc3ccc(OC)cc23)c2ccc(N)cc2)cc1` [Compound 9q, N’-((Z)-1-(4-Aminophenyl)-3-(4-methoxyphenyl)allylidene)-2-(4-chlorophenyl)-6-methoxyquinoline-4-carbohydrazide], for which the values for the IC50 in test [1] (setting [5]) and in test [2] (setting [6]) were 97.2 ± 2.36 µM and 68.1 ± 2.87 µM, respectively.
On to `COc1ccc(/C=C\C(=NNC(=O)c2cc(-c3ccc(OC)cc3)nc3ccc(OC)cc23)c2ccc(N)cc2)cc1` [Compound 9r, N’-((Z)-1-(4-Aminophenyl)-3-(4-methoxyphenyl)allylidene)-2-(4-methoxyphenyl)-6-methoxyquinoline-4-carbohydrazide], for which the IC50 in test [1] (setting [5]) is 67.4 ± 2.29 µM; in test [2] (setting [6]), 4.45 ± 0.64 µM.
On the same counts, the results for `COc1ccc2nc(-c3ccc(Cl)cc3)cc(C(=O)NN=C(/C=C\c3ccc(OC)c(OC)c3)c3ccc(N)cc3)c2c1` [Compound 9s, N’-((Z)-1-(4-Aminophenyl)-3-(3,4-dimethoxyphenyl)allylidene)-2-(4-chlorophenyl)-6-methoxyquinoline-4-carbohydrazide] are more than 100 µM and more than 100 µM.
`COc1ccc(-c2cc(C(=O)NN=C(/C=C\c3ccc(OC)c(OC)c3)c3ccc(N)cc3)c3cc(OC)ccc3n2)cc1` [Compound 9t, N’-((Z)-1-(4-Aminophenyl)-3-(3,4-dimethoxyphenyl)allylidene)-2-(4-methoxyphenyl)-6-methoxyquinoline-4-carbohydrazide]: the half-inhibitory concentration (IC50) in test [1] (setting [5]) was 31.6 ± 2.02 µM; in test [2] (setting [6]), 23.1 ± 2.15 µM.
On the same counts, the results for `O=c1cc(N2CCOCC2)oc2c(-c3ccccc3)cccc12` [LY294002, reference compound] are 3.52 µM and 2.68 µM.
